Test results published in patent US20250115669A1, “FGFR1/KLB Targeting Agonistic Antigen-Binding Proteins and Conjugates Thereof with GLP-1R Agonistic Peptides” (SANOFI, priority 2020, published 2025).
Read-outs that look alike come from different tables or passages of the source. Bridge positions count the residues as written; N and C are the ends. Ends that are not written are not given here. Peptide text beside a SMILES is read from it.

Tests used:
Assay type in all cases: cell-based
[1] = biological target: T1, human GLP-1 receptor (Homo sapiens, UniProt P43220); assay: HTRF cAMP assay in HEK-293 cells expressing human GLP-1 receptor
T1 construct: expressed in transfected cells; host or cells: PSC-HEK-293
T1 sequence (P43220 24-463): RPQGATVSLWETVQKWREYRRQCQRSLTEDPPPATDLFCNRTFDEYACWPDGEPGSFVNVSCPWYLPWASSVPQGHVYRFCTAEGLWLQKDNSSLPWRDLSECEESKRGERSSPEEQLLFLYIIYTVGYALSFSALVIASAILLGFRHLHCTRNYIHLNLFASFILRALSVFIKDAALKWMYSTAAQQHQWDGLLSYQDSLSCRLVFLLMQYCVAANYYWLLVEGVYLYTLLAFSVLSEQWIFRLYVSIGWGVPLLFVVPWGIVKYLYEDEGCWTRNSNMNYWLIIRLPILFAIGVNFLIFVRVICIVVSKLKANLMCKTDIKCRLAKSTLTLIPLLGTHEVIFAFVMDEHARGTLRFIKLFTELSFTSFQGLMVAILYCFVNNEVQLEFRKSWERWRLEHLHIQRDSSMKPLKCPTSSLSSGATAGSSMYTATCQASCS
Experimental: (§1) Each vial contained 1.8 ml cells. The vials were slowly frozen to −80° C. in isopropanol, and then transferred in liquid nitrogen for storage.
(§2) Cells were resuspended in assay buffer (cell buffer plus 2 mM IBMX) and adjusted to a cell density of 1 million cells/ml.
(§3) For measurement of cAMP generation, 5 μl cells (final 5000 cells/well) and 5 μl of test compound were added to a 384-well plate, followed by incubation for 30 min at room temperature.
(§4) The cAMP generated was determined using a kit from Cisbio Corp. based on HTRF (Homogenous Time Resolved Fluorescence). The cAMP assay was performed according to manufacturer's instructions (Cisbio).

[2] = biological target: T2, human GIP receptor (Homo sapiens, UniProt P48546); assay: HTRF cAMP assay in HEK-293 cells expressing human GIP receptor
T2 construct: expressed in transfected cells; host or cells: PSC-HEK-293
T2 sequence (P48546 22-466): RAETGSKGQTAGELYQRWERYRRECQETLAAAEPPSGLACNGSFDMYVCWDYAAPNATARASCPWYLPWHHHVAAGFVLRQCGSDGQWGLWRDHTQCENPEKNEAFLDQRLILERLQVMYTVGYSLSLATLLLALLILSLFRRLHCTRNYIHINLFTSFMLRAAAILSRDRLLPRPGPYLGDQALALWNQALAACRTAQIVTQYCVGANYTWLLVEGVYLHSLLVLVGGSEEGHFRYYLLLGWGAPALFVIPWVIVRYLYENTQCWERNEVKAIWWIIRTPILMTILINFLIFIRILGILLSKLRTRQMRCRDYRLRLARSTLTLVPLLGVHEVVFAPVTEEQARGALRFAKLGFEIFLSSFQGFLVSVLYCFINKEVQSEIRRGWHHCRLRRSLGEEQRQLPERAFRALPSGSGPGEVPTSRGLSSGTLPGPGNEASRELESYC
Experimental: as §1, §2, §3, §4

[3] = biological target: T3, human glucagon (GCG) receptor (Homo sapiens, UniProt P47871); assay: HTRF cAMP assay in HEK-293 cells expressing human glucagon receptor
T3 construct: expressed in transfected cells; host or cells: PSC-HEK-293
T3 sequence (P47871 26-477): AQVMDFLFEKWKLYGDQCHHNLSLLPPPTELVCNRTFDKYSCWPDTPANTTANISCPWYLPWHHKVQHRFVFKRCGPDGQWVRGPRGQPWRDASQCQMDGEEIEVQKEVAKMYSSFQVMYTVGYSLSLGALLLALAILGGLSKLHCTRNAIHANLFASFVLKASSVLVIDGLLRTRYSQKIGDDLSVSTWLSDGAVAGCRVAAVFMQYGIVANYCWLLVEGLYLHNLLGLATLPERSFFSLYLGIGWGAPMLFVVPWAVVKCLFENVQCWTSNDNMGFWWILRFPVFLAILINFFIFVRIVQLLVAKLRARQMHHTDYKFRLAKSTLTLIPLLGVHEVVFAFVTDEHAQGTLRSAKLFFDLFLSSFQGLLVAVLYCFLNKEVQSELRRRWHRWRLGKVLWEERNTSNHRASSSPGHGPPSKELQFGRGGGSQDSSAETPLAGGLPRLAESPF
Experimental: as §1, §2, §3, §4

[4] = HEK-293 cells, read-out: HTRF cAMP EC50 Human GLP-1R
[5] = HEK-293 cells, read-out: HTRF cAMP EC50 Human GIPR
[6] = HEK-293 cells, read-out: HTRF cAMP EC50 Human GCGR

Compound | EC50 [1, 4] [nM] | EC50 [2, 5] [nM] | EC50 [3, 6] [nM] | EC50 [1] [nM] | EC50 [2] [nM] | EC50 [3] [nM]
CC[C@H](C)[C@H](NC(=O)[C@H](Cc1ccccc1)NC(=O)[C@H](CC(C)C)NC(=O)[C@H](CCCNC(=N)N)NC(=O)[C@H](CCC(N)=O)NC(=O)[C@H](C)NC(=O)[C@H](CCC(=O)O)NC(=O)[C@H](CCC(=O)O)NC(=O)[C@H](CCC(=O)O)NC(=O)[C@H](CC(C)C)NC(=O)[C@H](CCC(N)=O)NC(=O)[C@H](CCCCN)NC(=O)[C@H](CO)NC(=O)[C@H](CC(C)C)NC(=O)[C@H](CC(=O)O)NC(=O)[C@H](CO)NC(=O)[C@@H](NC(=O)[C@H](Cc1ccccc1)NC(=O)[C@@H](NC(=O)CNC(=O)[C@H](CCC(=O)O)NC(=O)CNC(=O)[C@H](Cc1c[nH]cn1)NC(=O)CN)[C@@H](C)O)[C@@H](C)O)C(=O)N[C@@H](CCC(=O)O)C(=O)N[C@@H](Cc1c[nH]c2ccccc12)C(=O)N[C@@H](CC(C)C)C(=O)N[C@@H](CCCCN)C(=O)N[C@@H](C)C(=O)NCC(=O)NCC(=O)N1CCC[C@H]1C(=O)N[C@@H](CO)C(=O)N[C@@H](CO)C(=O)NCC(=O)N[C@@H](CCCCN)C(=O)N1CCC[C@H]1C(=O)N1CCC[C@H]1C(=O)N1CCC[C@H]1C(=O)N[C@@H](CCCCN)C(N)=O [Ab P036] (H-GHGEGTFTSDLSKQLEEEAQRLFIEWLKAGGPSSGKPPPK-NH2; N-terminus assumed) | 0.125 | > 10 | > 10 | – | – | –
CC[C@H](C)[C@H](NC(=O)[C@H](Cc1ccccc1)NC(=O)[C@H](CC(C)C)NC(=O)[C@H](CCCNC(=N)N)NC(=O)[C@@H](NC(=O)[C@H](C)NC(=O)[C@H](CCC(=O)O)NC(=O)[C@H](CCC(=O)O)NC(=O)[C@H](CCC(=O)O)NC(=O)[C@H](CC(C)C)NC(=O)[C@H](CCC(N)=O)NC(=O)[C@H](CCCCN)NC(=O)[C@H](CO)NC(=O)[C@H](CC(C)C)NC(=O)[C@H](CC(=O)O)NC(=O)[C@H](CO)NC(=O)[C@@H](NC(=O)[C@H](Cc1ccccc1)NC(=O)[C@@H](NC(=O)CNC(=O)[C@H](CCC(=O)O)NC(=O)CNC(=O)[C@H](Cc1c[nH]cn1)NC(=O)CN)[C@@H](C)O)[C@@H](C)O)C(C)C)C(=O)N[C@@H](CCC(=O)O)C(=O)N[C@@H](Cc1c[nH]c2ccccc12)C(=O)N[C@@H](CC(C)C)C(=O)N[C@@H](CCCCN)C(=O)N[C@@H](C)C(=O)NCC(=O)NCC(=O)N1CCC[C@H]1C(=O)N[C@@H](CCCCN)C(=O)N[C@@H](CCCCN)C(=O)N[C@H](C(=O)N[C@@H](CCCNC(=N)N)C(=O)N[C@@H](Cc1ccc(O)cc1)C(=O)N[C@@H](CO)C(N)=O)[C@@H](C)CC [Ab P013] (H-GHGEGTFTSDLSKQLEEEAVRLFIEWLKAGGPKKIRYS-NH2) | – | – | – | 0.0099 | > 10 | > 10
CC[C@H](C)[C@H](NC(=O)[C@H](Cc1ccccc1)NC(=O)[C@H](CC(C)C)NC(=O)[C@H](CCCNC(=N)N)NC(=O)[C@@H](NC(=O)[C@H](C)NC(=O)[C@H](CCC(=O)O)NC(=O)[C@H](CCC(=O)O)NC(=O)[C@H](CCC(=O)O)NC(=O)[C@H](CC(C)C)NC(=O)[C@H](CCC(N)=O)NC(=O)[C@H](CCCCN)NC(=O)[C@H](CO)NC(=O)[C@H](CC(C)C)NC(=O)[C@H](CC(=O)O)NC(=O)[C@H](CO)NC(=O)[C@@H](NC(=O)[C@H](Cc1ccccc1)NC(=O)[C@@H](NC(=O)CNC(=O)[C@H](CCC(=O)O)NC(=O)CNC(=O)[C@H](Cc1c[nH]cn1)NC(=O)CN)[C@@H](C)O)[C@@H](C)O)C(C)C)C(=O)N[C@@H](CCC(=O)O)C(=O)N[C@@H](Cc1c[nH]c2ccccc12)C(=O)N[C@@H](CC(C)C)C(=O)N[C@@H](CCCCN)C(=O)N[C@@H](C)C(=O)NCC(=O)NCC(=O)N1CCC[C@H]1C(=O)N[C@@H](CO)C(=O)N[C@@H](CO)C(=O)NCC(=O)N[C@@H](C)C(=O)N1CCC[C@H]1C(=O)N1CCC[C@H]1C(=O)N1CCC[C@H]1C(=O)N[C@@H](CO)C(N)=O [Ab P017] (H-GHGEGTFTSDLSKQLEEEAVRLFIEWLKAGGPSSGAPPPS-NH2) | – | – | – | 0.0085 | > 10 | > 10
CC[C@H](C)[C@H](NC(=O)[C@H](Cc1ccccc1)NC(=O)[C@H](CC(C)C)NC(=O)[C@H](CCC(N)=O)NC(=O)[C@@H](NC(=O)[C@H](C)NC(=O)[C@H](CCC(=O)O)NC(=O)[C@H](CCC(=O)O)NC(=O)[C@H](CCC(=O)O)NC(=O)[C@H](CC(C)C)NC(=O)[C@H](CCC(N)=O)NC(=O)[C@H](CCCCN)NC(=O)[C@H](CO)NC(=O)[C@H](CC(C)C)NC(=O)[C@H](CC(=O)O)NC(=O)[C@H](CO)NC(=O)[C@@H](NC(=O)[C@H](Cc1ccccc1)NC(=O)[C@@H](NC(=O)CNC(=O)[C@H](CCC(=O)O)NC(=O)CNC(=O)[C@H](Cc1c[nH]cn1)NC(=O)CN)[C@@H](C)O)[C@@H](C)O)C(C)C)C(=O)N[C@@H](CCC(=O)O)C(=O)N[C@@H](Cc1c[nH]c2ccccc12)C(=O)N[C@@H](CC(C)C)C(=O)N[C@@H](CCCCN)C(=O)N[C@@H](C)C(=O)NCC(=O)NCC(=O)N1CCC[C@H]1C(=O)N[C@@H](CO)C(=O)N[C@@H](CO)C(=O)NCC(=O)N[C@@H](CCCCN)C(=O)N1CCC[C@H]1C(=O)N1CCC[C@H]1C(=O)N1CCC[C@H]1C(=O)N[C@@H](CCCCN)C(N)=O [Ab P038] (H-GHGEGTFTSDLSKQLEEEAVQLFIEWLKAGGPSSGKPPPK-NH2; N-terminus assumed) | 0.0524 | > 10 | > 10 | – | – | –
HGEGTFTSDLSKQCEEERVQLFIEWLKATGPSSGKPPPKPGC-NH2 (disulfide 14-42) [Ab P035] | 0.0203 | > 10 | > 10 | – | – | –
CC[C@H](C)[C@H](NC(=O)[C@H](Cc1ccccc1)NC(=O)[C@H](CC(C)C)NC(=O)[C@H](CCCNC(=N)N)NC(=O)[C@H](CCC(N)=O)NC(=O)[C@H](CC(C)C)NC(=O)[C@H](CCCNC(=N)N)NC(=O)[C@H](CCCCN)NC(=O)[C@H](CCC(=O)O)NC(=O)[C@H](CC(C)C)NC(=O)[C@H](CCC(N)=O)NC(=O)[C@H](CCCCN)NC(=O)[C@H](CO)NC(=O)[C@H](CC(C)C)NC(=O)[C@H](CC(=O)O)NC(=O)[C@H](CO)NC(=O)[C@@H](NC(=O)[C@H](Cc1ccccc1)NC(=O)[C@@H](NC(=O)CNC(=O)[C@H](CCC(=O)O)NC(=O)CNC(=O)[C@@H](N)Cc1c[nH]cn1)[C@@H](C)O)[C@@H](C)O)C(=O)N[C@@H](Cc1ccc(O)cc1)C(=O)N[C@@H](Cc1c[nH]c2ccccc12)C(=O)N[C@@H](CC(C)C)C(=O)N[C@@H](CCCCN)C(=O)N[C@@H](C)C(=O)NCC(=O)NCC(=O)N[C@@H](Cc1c[nH]cn1)C(=O)N[C@@H](CO)C(=O)N[C@@H](CO)C(=O)NCC(=O)N[C@@H](CCCCN)C(=O)N1CCC[C@H]1C(=O)N1CCC[C@H]1C(=O)N1CCC[C@H]1C(=O)N[C@@H](CCCCN)C(N)=O [Ab P026] (H-HGEGTFTSDLSKQLEKRLQRLFIYWLKAGGHSSGKPPPK-NH2; N-terminus assumed) | 0.002 | 2.48 | 3.9 | – | – | –
CC[C@H](C)[C@H](NC(=O)[C@H](Cc1ccccc1)NC(=O)[C@H](CC(C)C)NC(=O)[C@H](CCCNC(=N)N)NC(=O)[C@@H](NC(=O)[C@H](C)NC(=O)[C@H](CCC(=O)O)NC(=O)[C@H](CCC(=O)O)NC(=O)[C@H](CCC(=O)O)NC(=O)[C@H](CC(C)C)NC(=O)[C@H](CCC(N)=O)NC(=O)[C@H](CCCCN)NC(=O)[C@H](CO)NC(=O)[C@H](CCCCN)NC(=O)[C@H](CC(=O)O)NC(=O)[C@H](CO)NC(=O)[C@@H](NC(=O)[C@H](Cc1ccccc1)NC(=O)[C@@H](NC(=O)CNC(=O)[C@H](CCC(=O)O)NC(=O)CNC(=O)[C@H](Cc1c[nH]cn1)NC(=O)CN)[C@@H](C)O)[C@@H](C)O)C(C)C)C(=O)N[C@@H](C)C(=O)N[C@@H](Cc1c[nH]c2ccccc12)C(=O)N[C@@H](CC(C)C)C(=O)N[C@H](C(=O)N[C@@H](CCCCN)C(N)=O)C(C)C [Ab P040] (H-GHGEGTFTSDKSKQLEEEAVRLFIAWLVK-NH2; N-terminus assumed) | 0.0627 | > 10 | > 10 | – | – | –
CC[C@H](C)[C@H](NC(=O)[C@H](Cc1ccccc1)NC(=O)[C@H](CC(C)C)NC(=O)[C@H](Cc1c[nH]cn1)NC(=O)[C@H](CCC(N)=O)NC(=O)[C@H](C)NC(=O)[C@H](CCC(=O)O)NC(=O)[C@H](CCC(=O)O)NC(=O)[C@H](CCC(=O)O)NC(=O)[C@H](CC(C)C)NC(=O)[C@H](CCC(N)=O)NC(=O)[C@H](CCCCN)NC(=O)[C@H](CO)NC(=O)[C@H](CC(C)C)NC(=O)[C@H](CC(=O)O)NC(=O)[C@H](CO)NC(=O)[C@@H](NC(=O)[C@H](Cc1ccccc1)NC(=O)[C@@H](NC(=O)CNC(=O)[C@H](CCC(=O)O)NC(=O)CNC(=O)[C@H](Cc1c[nH]cn1)NC(=O)CN)[C@@H](C)O)[C@@H](C)O)C(=O)N[C@@H](CCC(=O)O)C(=O)N[C@@H](Cc1c[nH]c2ccccc12)C(=O)N[C@@H](CC(C)C)C(=O)N[C@@H](CCCCN)C(=O)N[C@@H](C)C(=O)NCC(=O)NCC(=O)N1CCC[C@H]1C(=O)N[C@@H](CO)C(=O)N[C@@H](CO)C(=O)NCC(=O)N[C@@H](CCCCN)C(=O)N1CCC[C@H]1C(=O)N1CCC[C@H]1C(=O)N1CCC[C@H]1C(=O)N[C@@H](CCCCN)C(N)=O [Ab P037] (H-GHGEGTFTSDLSKQLEEEAQHLFIEWLKAGGPSSGKPPPK-NH2; N-terminus assumed) | 0.158 | > 10 | > 10 | – | – | –
